Measurements: publication PMC9603770, “Broad-Spectrum Inhibitors against Class A, B, and C Type β-Lactamases to Block the Hydrolysis against Antibiotics: Kinetics and Structural Characterization” (Microbiology Spectrum, 2022)
In brackets after ≈: the same amount, converted by molar mass. Read-outs that look alike come from different tables or passages of the source.

Assays:
[1] = test system: E. coli DH5α cells with blaAmp-C clone; experiment: microbe, parasite or virus in culture; assay type: cell-based; conditions: Escherichia coli
Protocol: (§1) The blaSHV-1, blaTEM-1, blaKPC-2, and blaAmp-C genes were cloned in the pET-28a vector individually, followed by its transformation in Escherichia coli DH5α cells. The MIC values was determined for clinical strains (AK-10, AK-12, AK-18, NP-6, AK-67, and AK-66) and E. coli DH5α cells with selected clones (blaSHV-1, blaTEM-1, blaKPC-2, blaAmp-C, blaCTX-M-15, and blaNDM-1) carrying vectors individually.
(§2) In a series of 2-fold dilutions, E. coli cells were given escalating doses of antibiotics from 0 to 512 μg/mL.

[2] = test system: E. coli DH5α cells with blaCTX-M-15 clone; experiment: microbe, parasite or virus in culture; assay type: cell-based; conditions: Escherichia coli
Protocol: as §1, §2

[3] = test system: E. coli DH5α cells with blaKPC-2 clone; experiment: microbe, parasite or virus in culture; assay type: cell-based; conditions: Escherichia coli
Protocol: as §1, §2

[4] = test system: E. coli DH5α cells with blaNDM-1 clone; experiment: microbe, parasite or virus in culture; assay type: cell-based; conditions: Escherichia coli
Protocol: as §1, §2

[5] = test system: E. coli DH5α cells with blaSHV-1 clone; experiment: microbe, parasite or virus in culture; assay type: cell-based; conditions: Escherichia coli
Protocol: as §1, §2

[6] = test system: E. coli DH5α cells with blaTEM-1 clone; experiment: microbe, parasite or virus in culture; assay type: cell-based; conditions: Escherichia coli
Protocol: as §1, §2

[7] = test system: clinical strain AK-10; experiment: MIC, microdilution; assay type: cell-based
Protocol: as §1, §2

[8] = test system: clinical strain AK-66; experiment: MIC, microdilution; assay type: cell-based
Protocol: as §1, §2

[9] = test system: clinical strain NP-6; experiment: MIC, microdilution; assay type: cell-based
Protocol: as §1, §2

[10] = test system: clinical strain AK-18; experiment: MIC, microdilution; assay type: cell-based
Protocol: as §1, §2

[11] = test system: clinical strain AK-67; experiment: MIC, microdilution; assay type: cell-based
Protocol: as §1, §2

[12] = biological target: T1, Amp-C (Escherichia coli, UniProt P00811); experiment: Steady-state kinetics of antibiotic hydrolysis with inhibitor; assay type: biochemical; conditions: inhibitor concentration as per IC50
T1 construct: made in house; host or cells: E. coli (DH5 and BL21(DE3) named; pET-28a)
Protocol: (§3) The enzyme kinetics parameters (Km, and kcat) for all six proteins/enzymes in combination with different antibiotics (cefotaxime, imipenem, and meropenem), were calculated. The concentration of inhibitors, D63, D2148, and D2573, was as per the IC50 value (Fig. 5); the kinetic parameters are listed in Table 8.
(§4) The steady-state kinetics of all six proteins were determined using the antibiotics:imipenem (Δε295 = −11,500 M^−1 cm^−1), meropenem (Δε297 = −10,940 M^−1 cm^−1), and cefotaxime (Δε264 = −27,250 M^−1 cm^−1). In this study, the D63, D2148, and D2573 inhibitors were tested. Hydrolysis of β-lactam antibiotics was detected by monitoring the variation in absorbance due to cleavage of the β-lactam ring in 50 mM, pH 7.0, phosphate buffer ([40], [41]). For hydrolysis of substrate (cefotaxime, imipenem, and meropenem) kinetics parameters, Km and kcat were calculated by using Michaelis Menten equations (equations 2 and 3). (2) V =Vmax [S]/Km + [S] (3) kcat = Vmax/E where E and S are the enzyme and substrate concentration, Km is the Michaelis-Mentent constant, kcat is the turnover number, and V and Vmax are the initial and maximum velocity of the hydrolysis, respectively.

[13] = biological target: T2, CTX-M-15 (Escherichia coli, UniProt Q9EXV5); experiment: as above; assay type: biochemical; conditions: inhibitor concentration as per IC50
T2 construct: made in house; host or cells: E. coli (DH5 and BL21(DE3) named)
Protocol: as §3, §4

[14] = biological target: T3, KPC-2 (Klebsiella pneumoniae, UniProt Q9F663); experiment: as above; assay type: biochemical; conditions: inhibitor concentration as per IC50
T3 construct: made in house; host or cells: E. coli (DH5 and BL21(DE3) named; pET-28a)
Protocol: as §3, §4

[15] = biological target: T4, NDM-1 (Klebsiella pneumoniae, UniProt C7C422); experiment: as above; assay type: biochemical; conditions: inhibitor concentration as per IC50
T4 construct: made in house; host or cells: E. coli (DH5 and BL21(DE3) named)
Protocol: as §3, §4

[16] = biological target: T5, SHV-1 (Klebsiella pneumoniae, UniProt P0AD64); experiment: as above; assay type: biochemical; conditions: inhibitor concentration as per IC50
T5 construct: made in house; host or cells: E. coli (DH5 and BL21(DE3) named; pET-28a)
Protocol: as §3, §4

[17] = biological target: T6, TEM-1 (Escherichia coli, UniProt P62593); experiment: as above; assay type: biochemical; conditions: inhibitor concentration as per IC50
T6 construct: made in house; host or cells: E. coli (DH5 and BL21(DE3) named; pET-28a)
Protocol: as §3, §4

[18] = biological target: T2, CTX-M-15; parameters: method as in PMID 20921316; conditions: cited from earlier work
[19] = clinical strain AK-66, read-out: MIC

T6 sequence (P62593 24-286 limits assumed): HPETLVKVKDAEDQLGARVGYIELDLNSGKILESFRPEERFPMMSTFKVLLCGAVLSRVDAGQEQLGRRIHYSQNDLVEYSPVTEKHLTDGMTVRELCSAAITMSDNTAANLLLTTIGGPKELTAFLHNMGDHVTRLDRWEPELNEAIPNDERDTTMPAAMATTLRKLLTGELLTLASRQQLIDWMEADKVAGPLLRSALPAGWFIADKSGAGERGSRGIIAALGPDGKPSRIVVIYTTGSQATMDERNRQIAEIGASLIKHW
T2 sequence (Q9EXV5 29-291, species assumed): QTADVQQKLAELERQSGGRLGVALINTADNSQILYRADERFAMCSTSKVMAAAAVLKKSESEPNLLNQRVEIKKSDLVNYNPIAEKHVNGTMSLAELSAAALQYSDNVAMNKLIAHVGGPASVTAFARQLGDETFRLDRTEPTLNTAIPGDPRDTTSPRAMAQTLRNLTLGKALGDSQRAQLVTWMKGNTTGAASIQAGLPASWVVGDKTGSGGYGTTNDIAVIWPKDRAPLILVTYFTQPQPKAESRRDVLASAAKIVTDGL
T3 sequence (Q9F663 25-293, looked up, species assumed): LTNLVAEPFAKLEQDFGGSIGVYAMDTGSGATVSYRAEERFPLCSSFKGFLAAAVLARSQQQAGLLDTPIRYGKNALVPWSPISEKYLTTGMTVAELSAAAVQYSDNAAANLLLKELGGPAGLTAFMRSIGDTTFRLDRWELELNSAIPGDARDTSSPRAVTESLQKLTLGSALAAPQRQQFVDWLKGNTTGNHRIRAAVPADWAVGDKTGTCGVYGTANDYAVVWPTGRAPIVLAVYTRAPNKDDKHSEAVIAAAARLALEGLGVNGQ
T1 sequence (P00811 20-377): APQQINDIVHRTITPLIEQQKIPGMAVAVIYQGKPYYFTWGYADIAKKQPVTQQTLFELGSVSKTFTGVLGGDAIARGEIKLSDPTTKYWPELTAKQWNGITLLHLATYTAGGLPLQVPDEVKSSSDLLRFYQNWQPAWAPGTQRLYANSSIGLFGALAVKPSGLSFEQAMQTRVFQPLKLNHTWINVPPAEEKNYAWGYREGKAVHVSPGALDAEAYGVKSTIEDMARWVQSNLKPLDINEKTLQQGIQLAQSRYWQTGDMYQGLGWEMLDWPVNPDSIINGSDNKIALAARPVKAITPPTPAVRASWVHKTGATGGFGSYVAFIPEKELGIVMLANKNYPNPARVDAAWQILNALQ
T4 sequence (C7C422 29-270, looked up, species assumed): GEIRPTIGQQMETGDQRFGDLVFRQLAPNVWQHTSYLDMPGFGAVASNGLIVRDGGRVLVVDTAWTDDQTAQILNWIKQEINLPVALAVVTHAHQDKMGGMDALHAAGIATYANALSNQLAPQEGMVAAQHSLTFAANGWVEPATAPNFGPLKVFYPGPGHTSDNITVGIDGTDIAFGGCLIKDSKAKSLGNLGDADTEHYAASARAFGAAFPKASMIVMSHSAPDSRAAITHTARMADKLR
T5 sequence (P0AD64 22-286): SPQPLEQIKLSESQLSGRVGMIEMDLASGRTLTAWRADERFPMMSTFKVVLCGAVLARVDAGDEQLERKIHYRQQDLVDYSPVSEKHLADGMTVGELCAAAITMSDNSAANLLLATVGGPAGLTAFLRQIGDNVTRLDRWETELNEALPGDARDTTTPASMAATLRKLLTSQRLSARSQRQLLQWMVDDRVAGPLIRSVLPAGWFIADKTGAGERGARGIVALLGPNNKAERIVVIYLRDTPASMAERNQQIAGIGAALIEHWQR

SMILES: C[C@@H](O)[C@H]1C(=O)N2C(C(=O)O)=C(SCCN=CN)C[C@H]12 [Imipenem]
- MIC [1]: 16 mg/L (≈ 53.4 µM)
- MIC [2]: 32 mg/L (≈ 107 µM)
- MIC [3]: 16 mg/L (≈ 53.4 µM)
- MIC [4]: 512 mg/L (≈ 1710 µM)
- MIC [5]: 16 mg/L (≈ 53.4 µM)
- MIC [6]: 16 mg/L (≈ 53.4 µM)
- MIC [7]: 128 mg/L (≈ 428 µM)
- MIC [8, 19]: 1020 mg/L (≈ 3420 µM)
- MIC [9]: 64 mg/L (≈ 214 µM)

SMILES: CO/N=C(\C(=O)N[C@@H]1C(=O)N2C(C(=O)O)=C(COC(C)=O)CS[C@H]12)c1csc(N)n1 [Cefotaxime]
- MIC [1]: 2 mg/L (≈ 4.39 µM)
- MIC [2]: 512 mg/L (≈ 1120 µM)
- MIC [3]: 2 mg/L (≈ 4.39 µM)
- MIC [4]: 256 mg/L (≈ 562 µM)
- MIC [5]: 4 mg/L (≈ 8.78 µM)
- MIC [6]: 2 mg/L (≈ 4.39 µM)
- MIC [7]: 1020 mg/L (≈ 2250 µM)
- MIC [10]: 32 mg/L (≈ 70.3 µM)
- MIC [8]: 512 mg/L (≈ 1120 µM)
- MIC [11]: 512 mg/L (≈ 1120 µM)
- MIC [9]: 16 mg/L (≈ 35.1 µM)

SMILES: C[C@@H](O)[C@H]1C(=O)N2C(C(=O)O)=C(S[C@@H]3CN[C@H](C(=O)N(C)C)C3)[C@H](C)[C@H]12 [Meropenem]
- MIC [1]: 4 mg/L (≈ 10.4 µM)
- MIC [2]: 2 mg/L (≈ 5.22 µM)
- MIC [3]: 2 mg/L (≈ 5.22 µM)
- MIC [4]: 1020 mg/L (≈ 2670 µM)
- MIC [5]: 2 mg/L (≈ 5.22 µM)
- MIC [6]: 2 mg/L (≈ 5.22 µM)
- MIC [7]: 32 mg/L (≈ 83.4 µM)
- MIC [10]: 32 mg/L (≈ 83.4 µM)
- MIC [8, 19]: 1020 mg/L (≈ 2670 µM)
- MIC [9]: 16 mg/L (≈ 41.7 µM)

SMILES: CO[C@@]1(NC(=O)Cc2cccs2)C(=O)N2C(C(=O)O)=C(COC(N)=O)CS[C@@H]21 [Cefoxitin]
- MIC [1]: 32 mg/L (≈ 74.9 µM)
- MIC [2]: 32 mg/L (≈ 74.9 µM)
- MIC [3]: 32 mg/L (≈ 74.9 µM)
- MIC [4]: 32 mg/L (≈ 74.9 µM)
- MIC [5]: 32 mg/L (≈ 74.9 µM)
- MIC [6]: 32 mg/L (≈ 74.9 µM)
- MIC [8, 19]: 64 mg/L (≈ 150 µM)
- MIC [9]: 64 mg/L (≈ 150 µM)

SMILES: NC(=O)[C@@H]1CC[C@@H]2CN1C(=O)N2OS(=O)(=O)O [Avibactam, reference compound]
- Km or Ki ([12]; cefotaxime): 1,199 μΜ
- kcat ([12]; cefotaxime): 1.417 S^−1
- Km or Ki ([12]; imipenem): 321 μΜ
- kcat ([12]; imipenem): 0.861 S^−1
- Km or Ki ([12]; meropenem): 1,442 μΜ
- kcat ([12]; meropenem): 2.213 S^−1
- Km or Ki ([13]; cefotaxime): 2047 μΜ
- kcat ([13]; cefotaxime): 1.858 S^−1
- Km or Ki ([13]; imipenem): 2,918 μΜ
- kcat ([13]; imipenem): 0.4807 S^−1
- Km or Ki ([13]; meropenem): 745.5 μΜ
- kcat ([13]; meropenem): 1.566 S^−1
- Km or Ki ([14]; cefotaxime): 1299 μΜ
- kcat ([14]; cefotaxime): 0.549 S^−1
- Km or Ki ([14]; imipenem): 2,637 μΜ
- kcat ([14]; imipenem): 1.499 S^−1
- Km or Ki ([14]; meropenem): 1,740 μΜ
- kcat ([14]; meropenem): 0.72 S^−1
- Km or Ki ([15]; cefotaxime): 212.2 μΜ
- kcat ([15]; cefotaxime): 1.036 S^−1
- Km or Ki ([15]; imipenem): 615.5 μΜ
- kcat ([15]; imipenem): 2.194 S^−1
- Km or Ki ([15]; meropenem): 440.9 μΜ
- kcat ([15]; meropenem): 1.268 S^−1
- Km or Ki ([16]; cefotaxime): 1,201 μΜ
- kcat ([16]; cefotaxime): 0.6119 S^−1
- Km or Ki ([16]; imipenem): 835.4 μΜ
- kcat ([16]; imipenem): 0.5531 S^−1
- Km or Ki ([16]; meropenem): 532 μΜ
- kcat ([16]; meropenem): 0.4803 S^−1
- Km or Ki ([17]; cefotaxime): 1,558 μΜ
- kcat ([17]; cefotaxime): 1.339 S^−1
- Km or Ki ([17]; imipenem): 2,918 μΜ
- kcat ([17]; imipenem): 1.107 S^−1
- Km or Ki ([17]; meropenem): 12,315 μΜ
- kcat ([17]; meropenem): 5.916 S^−1
- IC50 [18]: 5 nM
